From patent US10138208B2, “Pyrazole derivatives as inhibitors of STAT3” (Mayo Foundation for Medical Education and Research, priority 2012, dated 2018)
Entries after “also recorded” stand apart in the source; their conditions may differ. Read-outs that look alike come from different tables or passages of the source.

Experiments:
[1] = system: Bcl-2; assay: Downstream target of STAT3 transcription: Bcl-2 protein level in dBT114 cells; format: cell-based, human; details: various concentrations, 24 hours (FIG. 3, FIG. 10B)
Method: (§1) STAT3 is a transcription factor that leads to the activation of several pro-proliferation proteins including Cyclin D1 and numerous anti-apoptotic proteins such as Bcl-2. To analyze the effects on the downstream targets of STAT3 transcription, Cyclin D1 and Bcl-2 protein levels were monitored after exposure to the compounds described. dBT114 cells were treated with various concentrations of C3, C10 or DMSO for 24 hours.
(§2) Western Blot Analysis: Prior to analysis, cells were washed twice in cold phosphate buffered saline (PBS) and flash frozen in 200 μL of lysis buffer (50 mm/L NaCl, 50 mmol/L NaF, 50 mmol/L sodium pyrophosphate, 5 mmol/L EDTA, 5 mmol/L EGTA, 2 mmol/L Na3VO4, 1% Triton X-100, 0.5 mmol/L PMSF, […], 10 mmol/L HEPES, pH 7.4) in a ethanol/dry ice bath followed by scraping and a 5 second sonication to achieve a homogeneous solution. Sample protein concentrations were determined using the Bradford protein assay kit (Bio-Rad, Hercules, Calif.). To characterize changes in protein levels in whole cell lysates, 10 μg of total protein was size fractioned by 12% SDS-PAGE, transferred to nitrocellulose and stained with Ponceau-S stain to ensure equal protein loading. […]

[2] = system: dBT114 cells; assay: Annexin V/propidium iodide apoptosis assay, dBT114; format: cell-based, human; details: for cell death through apoptosis (Annexin V/PI flow cytometry): dBT114 (BT114) cells, dose dependent, 24 hours
Method: (§3) The compounds were tested for their effect on tumor cell viability by initiating apoptosis through Annexin V-FITC cell staining analysis. […] Cell death was most pronounced in DAOY cells, followed by BT114 and then HCT cells (FIG. 8). […] The difference in cell death between cell lines may reflect differences in STAT3 signaling between tumor cell types.
(§4) Apoptosis Assay: Analysis of cell death through an apoptosis pathway was determined using an Annexin V apoptosis detection kit (Calbiochem, Rockland, Mass.). dBT114, DAOY and HCT116 cells were plated in 6-well tissue culture plates at a density of 500 cells per well and allowed to reach 60% confluence prior to addition of test compounds for 24 hours. Floating and adherent cells were harvested and stained with FITC-labeled Annexin V and propidium iodide for 15 minutes at room temperature in the dark. The cells were then washed with cold binding buffer and immediately analyzed by flow cytometry for cells staining positive for both Annexin V and propidium iodide.

[3] = system: Normal Human Astrocytes (NHA)
Method: (§8) MTT Cell Proliferation Assay: Normal Human Astrocytes (Lonza) and human BT114 cells were plated at a density of 5000 cells per well in a 96-well tissue culture plate and incubated at 37° C. in the presence of 5% CO2 for 24 hours. Cell proliferation was determined using the CellTiter 96 Cell Proliferation Assay (Promega). After 24 hours cells were refed with normal media and MTT dye solution was added according to manufacturer's protocol. After 4 hours the reaction was stopped and absorbance was measured at 570 nm using a 96 well plate reader. […] (n=4).

[4] = system: glioblastoma (dBT114) cells; assay: IncuCyte cell proliferation assay (confluence), dBT114; format: cell-based, human; details: for dose-dependent inhibition of tumor cell proliferation: dBT114 cells (FIG. 4B); for effect on tumor cell growth kinetics (confluence): 50 μM (FIG. 4A)
Method: (§5) Pyrazole-based inhibitors were tested for efficacy in stopping tumor cell growth by performing cell proliferation assays in glioblastoma (dBT114), medulloblastoma (DAOY) and human colorectal carcinoma (HCT116) cells lines. Tumor cells were plated in 96-well plates and varying concentrations of inhibitors or DMSO were added initially or after several log-growths of tumor cells. Cell proliferation was determined by measuring cell confluency using an automated system. […] Similar effects were found on tumor cell proliferation in DAOY and HCT116 tumor cell lines (FIG. 5, again only showing C6 data). The effects of C6 and C3 on tumor cell proliferation were compared to other previously characterized inhibitors, specifically, WP1066 (a Jak2 inhibitor) and LLL-12 (a direct STAT3 inhibitor).
(§6) IncuCyte Cell Proliferation Assay: Cell proliferation assays were performed on dBT114, DAOY and HCT116 cells using an IncuCyte 2011A microplate imager (Essen BioScience, Ann Arbor, Mich.). Cells were plated at a density of 3000 cells per well in a 96 well plate and allowed to reach exponential growth phase prior to the addition of test compounds. Cell confluence was measured optically every three hours for up to 90 hours.

[5] = system: MAP kinase; assay: Activated MAP kinase levels, Western blot, dBT114 cells; format: cell-based, human; details: increasing concentrations (FIG. 2)
Method: (§7) Compounds described herein can be tested for blocking the activation of phospho-STAT3 in vitro. […] The compounds were tested for inhibiting IL-6 induced phosphorylation of STAT3 in a human Glioblastoma GBM stem cell line (dBT114) and in the murine GBM cell line, GL261. IL-6 potently activates STAT3 phosphorylation in dBT114 cells but not as much in GL261 cells (FIG. 1), showing that GL261 cells have constitutively activated STAT3. […] A dose dependent decrease of IL-6 induced STAT3 phosphorylation in dBT114 cells using increasing concentrations of our compounds was observed, while no effect was seen on the levels of activated MAP kinase (FIG. 2).
as §2, with “Calif.).” for “Calif.). To characterize changes in protein levels in whole cell lysates, 10 μg of total protein was size fractioned by 12% SDS-PAGE, transferred to nitrocellulose and stained with Ponceau-S stain to ensure equal protein loading.”

[6] = system: PARP; assay: PARP cleavage in dBT114 cells; format: cell-based, human; details: various concentrations, 24 hours (FIG. 3, FIG. 10B)
[7] = biological target: T1, STAT3 (Mus musculus, UniProt P42227); assay: STAT3 phosphorylation, Western blot, GL261 cells; format: cell-based, murine; details: GL261 cells (constitutively activated STAT3), 10 μM, Western blot (FIG. 1)
T1 construct: endogenous in cells; host or cells: GL261 (murine GBM cell line)
T1 sequence (P42227 whole entry): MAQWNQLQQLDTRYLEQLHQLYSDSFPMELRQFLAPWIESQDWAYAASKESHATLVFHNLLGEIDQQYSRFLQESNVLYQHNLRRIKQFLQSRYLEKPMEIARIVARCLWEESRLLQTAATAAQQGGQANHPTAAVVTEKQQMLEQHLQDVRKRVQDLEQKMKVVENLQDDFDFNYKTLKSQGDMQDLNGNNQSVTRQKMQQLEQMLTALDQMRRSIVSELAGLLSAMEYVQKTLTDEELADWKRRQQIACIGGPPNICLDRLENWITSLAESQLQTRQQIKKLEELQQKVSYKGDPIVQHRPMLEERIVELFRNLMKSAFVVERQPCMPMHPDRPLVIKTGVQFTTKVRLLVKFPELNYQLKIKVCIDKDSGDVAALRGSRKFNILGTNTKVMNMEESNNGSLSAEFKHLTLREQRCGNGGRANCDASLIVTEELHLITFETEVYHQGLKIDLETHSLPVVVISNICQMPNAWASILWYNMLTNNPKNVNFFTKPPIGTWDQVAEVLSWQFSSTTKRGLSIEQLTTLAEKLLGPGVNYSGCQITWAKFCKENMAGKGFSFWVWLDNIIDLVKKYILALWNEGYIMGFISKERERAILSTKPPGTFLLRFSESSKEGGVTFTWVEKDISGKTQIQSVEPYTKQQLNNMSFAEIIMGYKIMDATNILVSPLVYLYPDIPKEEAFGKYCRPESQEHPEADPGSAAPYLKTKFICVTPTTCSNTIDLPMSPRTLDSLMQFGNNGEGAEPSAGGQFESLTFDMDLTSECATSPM
Method: as §7
as §2, with “Calif.).” for “Calif.). To characterize changes in protein levels in whole cell lysates, 10 μg of total protein was size fractioned by 12% SDS-PAGE, transferred to nitrocellulose and stained with Ponceau-S stain to ensure equal protein loading.”

[8] = biological target: T2, STAT3 (Homo sapiens, UniProt P40763); assay: IL-6 induced STAT3 phosphorylation, Western blot / densitometry, dBT114 cells; format: cell-based; details: for inhibition of STAT3 phosphorylation: IL-6, 10 μM, Western blot (FIG. 1); for IC50: densitometry of western blots (FIG. 12), read-out: half-maximal inhibitory concentration (IC50) for blocking STAT3 activation; for dose dependence of inhibition of IL-6 induced STAT3 phosphorylation: increasing concentrations (FIG. 2)
T2 construct: To characterize changes in protein levels in whole cell lysates; endogenous in cells; host or cells: dBT114 (human GBM stem cell line)
T2 sequence (P40763 whole entry): as the sequence (P42227 whole entry) above, with D760E counted along it
Method: as §7
Western Blot Analysis: Prior to analysis, cells were washed twice in cold phosphate buffered saline (PBS) and flash frozen in 200 μL of lysis buffer (50 mm/L NaCl, 50 mmol/L NaF, 50 mmol/L sodium pyrophosphate, 5 mmol/L EDTA, 5 mmol/L EGTA, 2 mmol/L Na3VO4, 1% Triton X-100, 0.5 mmol/L PMSF, […], 10 mmol/L HEPES, pH 7.4) in a ethanol/dry ice bath followed by scraping and a 5 second sonication to achieve a homogeneous solution. Sample protein concentrations were determined using the Bradford protein assay kit (Bio-Rad, Hercules, Calif.). To characterize changes in protein levels in whole cell lysates, 10 μg of total protein was size fractioned by 12% SDS-PAGE, transferred to nitrocellulose and stained with Ponceau-S stain to ensure equal protein loading. For Western blot analysis, membranes were incubated for 1 hour in blocking solution containing 1% dry milk in PBS-T, followed by an overnight incubation with either anti-Stat3 (Santa Cruz Biotechnology, Santa Cruz, Calif.,) or anti-Phospho-Stat3 (Santa Cruz). Nitrocellulose membranes were then incubated for 1 hour with horseradish peroxidase conjugated anti-IgG antibodies and visualized using Super Signal West Pico enhanced chemiluminescence detection (Thermo Scientific, Waltham, Mass.).
Western Densitometry—Determination of Half-Maximal Inhibitory Concentration for Activating STAT3: Dose Response Curves Half-maximal inhibitory concentrations for activating STAT3 (IC50 values) were calculated in BT114 cells from western blot data. The original western blot films were analyzed by densitometric analysis using the software program NIH Image (available at rsb.info.nih.gov/nih-image/). Standard dose-response curves were then created using the software program Prism 5.

[9] = system: DAOY cells; assay: Annexin V/propidium iodide apoptosis assay, DAOY; format: cell-based; details: dose dependent, 24 hours
Method: as §3, §4

[10] = system: HCT116 cells; assay: Annexin V/propidium iodide apoptosis assay, HCT116; format: cell-based, human; details: HCT (HCT116) cells, dose dependent, 24 hours
Method: as §3, §4

[11] = system: Normal Human Astrocytes (NHA); assay: MTT cell proliferation assay, normal human astrocytes; details: 24 hour exposure, increasing concentrations, n=4 (FIG. 13)
Method: as §8

[12] = system: medulloblastoma (DAOY) cells; assay: IncuCyte cell proliferation assay (confluence), DAOY; format: cell-based; details: DAOY cells (FIG. 5A)
Method: as §5, §6

[13] = system: human colorectal carcinoma (HCT116) cells; assay: IncuCyte cell proliferation assay (confluence), HCT116; format: cell-based; details: human colorectal carcinoma cell line HCT116 (FIG. 5B)
Method: as §5, §6

[14] = system: DAOY cells; assay: Uptake in living cells by confocal microscopy; format: cell-based; details: live DAOY cells, 50 μM, 30 minutes, confocal microscopy (FIG. 9)
Method: Further, live DAOY cells were treated with 50 μM C9 for 30 minutes and then evaluated its uptake with confocal microscopy.

[15] = system: Cyclin D1; assay: Downstream target of STAT3 transcription: Cyclin D1 protein level in dBT114 cells; format: cell-based, human; details: various concentrations, 24 hours (FIG. 3)
Method: as §1, §2

uptake and fluorescence in living cells [14]	SMILES	Bcl-2 protein level [1]	cell death through apoptosis (Annexin V/PI flow cytometry) [2]	metabolic activity of normal human astrocytes [3]	dose-dependent inhibition of tumor cell proliferation [4]	effect on tumor cell growth kinetics (confluence) ([4]; dBT114 cells)	effect on levels of activated MAP kinase [5]	cleavage of PARP (induction of apoptosis) [6]	inhibition of STAT3 phosphorylation [7]	inhibition of STAT3 phosphorylation [8]	IC50 [8] [nM]	dose dependence of inhibition of IL-6 induced STAT3 phosphorylation [8]	cell death through apoptosis (Annexin V/PI flow cytometry) [9]	cell death through apoptosis (Annexin V/PI flow cytometry) [10]	metabolic activity of normal human astrocytes [11]	dose-dependent inhibition of tumor cell proliferation [12]	relative potency in causing cell death ([2]; all cell lines tested (BT114, DAOY, HCT))	cellular proliferation, combination with temozolomide (TMZ) ([4]; dBT114 cells, C6 fixed 25 μM with increasing concentrations of TMZ (FIG. 7))	dose-dependent inhibition of tumor cell proliferation [13]	Cyclin D1 protein level [15]
	CNC(=O)COCC(=O)Nc1ccc(Cc2cc(-c3ccc(Br)cc3)n(-c3ccc(S(N)(=O)=O)cc3)n2)cc1 [C3, 3-[{2-[(Methylaminocarbonyl)-methoxy]-acetyl}-(4-aminobenzyl)]-5-(4-bromophenyl)-1-(4-aminosulfonylphenyl)-1H-pyrazole]	decreased Bcl-2 in a dose dependent fashion; also recorded: dose-dependent reduction	dose-dependent apoptosis	no clear pattern of increased or decreased metabolic activity	dose-dependent inhibition	profound effect	no effect	cleavage of PARP; also recorded: increase	potently inhibited; also recorded: blocked	potently inhibited; also recorded: blocked	670	dose-dependent inhibition								
	CC(=O)Nc1ccc(Cc2cc(-c3ccc(Br)cc3)n(-c3ccc(S(N)(=O)=O)cc3)n2)cc1 [C4, 3-(4-Acetamidebenzyl)-5-(4-bromophenyl)-1-(4-aminosulfonylphenyl)-1H-pyrazole]		cell death through apoptosis; also recorded: dose-dependent apoptosis		dose-dependent inhibition						> 50000		cell death through apoptosis	cell death through apoptosis	no clear pattern of increased or decreased metabolic activity					
	CC(C)CCc1cc(-c2ccc(Br)cc2)n(-c2ccc(S(N)(=O)=O)cc2)n1 [C6, 5-(4-Bromophenyl)-3-(isopentyl)-1-(4-aminosulfonylphenyl)-1H-pyrazole]		cell death through apoptosis; also recorded: dose-dependent apoptosis		dose-dependent inhibition; also recorded: dose dependent inhibition	profound effect					13400		cell death through apoptosis	cell death through apoptosis	no clear pattern of increased or decreased metabolic activity	dose dependent inhibition	more potent than C4	dose-dependent decrease	dose dependent inhibition	
strong uptake and fluorescence	CC(C)CCc1cc(-c2ccccc2)nn1-c1ccc(S(N)(=O)=O)cc1 [C9, 3-(Phenyl)-5-(isopentyl)-1-(4-aminosulfonylphenyl)-1H-pyrazole]																			
	NS(=O)(=O)c1ccc(-n2nc(Cc3ccc(NC(=O)COCC(=O)NCCCCCCCNC(=O)COCC(=O)Nc4ccc(Cc5cc(-c6ccc(Br)cc6)n(-c6ccc(S(N)(=O)=O)cc6)n5)cc4)cc3)cc2-c2ccc(Br)cc2)cc1 [C10, 3-[{2-[(7-{2-[((4-((5-(4-Bromophenyl)-1-(4-sulfamoylphenyl)-1H-pyrazol-3-yl)methyl)phenyl)aminocarbonyl)-methoxy]-acetylamino}-heptylaminocarbonyl)-methoxy]-acetyl}-(4-aminobenzyl)]-5-(4-bromophenyl)-1-(4-aminosulfonylphenyl)-1H-pyrazole]	dose-dependent reduction	dose-dependent apoptosis	no clear pattern of increased or decreased metabolic activity			no effect	increase	potently inhibited; also recorded: blocked	potently inhibited; also recorded: blocked	207	dose-dependent inhibition								decreased Cyclin D1 levels in a dose dependent fashion
